Source: patent publication US11040976B2, “Substrate selective inhibitors of insulin-degrading enzyme (IDE) and uses thereof” (President and Fellows of Harvard College, priority 2015, dated 2021)

What was measured:
[1] = target: T1, IDE, substrate glucagon (Homo sapiens, UniProt P14735); assay: MALDI analysis of glucagon cleavage products (FIGS. 27-32); assay type: biochemical; details: FIG. 27A
T1 sequence (P14735 1-1019): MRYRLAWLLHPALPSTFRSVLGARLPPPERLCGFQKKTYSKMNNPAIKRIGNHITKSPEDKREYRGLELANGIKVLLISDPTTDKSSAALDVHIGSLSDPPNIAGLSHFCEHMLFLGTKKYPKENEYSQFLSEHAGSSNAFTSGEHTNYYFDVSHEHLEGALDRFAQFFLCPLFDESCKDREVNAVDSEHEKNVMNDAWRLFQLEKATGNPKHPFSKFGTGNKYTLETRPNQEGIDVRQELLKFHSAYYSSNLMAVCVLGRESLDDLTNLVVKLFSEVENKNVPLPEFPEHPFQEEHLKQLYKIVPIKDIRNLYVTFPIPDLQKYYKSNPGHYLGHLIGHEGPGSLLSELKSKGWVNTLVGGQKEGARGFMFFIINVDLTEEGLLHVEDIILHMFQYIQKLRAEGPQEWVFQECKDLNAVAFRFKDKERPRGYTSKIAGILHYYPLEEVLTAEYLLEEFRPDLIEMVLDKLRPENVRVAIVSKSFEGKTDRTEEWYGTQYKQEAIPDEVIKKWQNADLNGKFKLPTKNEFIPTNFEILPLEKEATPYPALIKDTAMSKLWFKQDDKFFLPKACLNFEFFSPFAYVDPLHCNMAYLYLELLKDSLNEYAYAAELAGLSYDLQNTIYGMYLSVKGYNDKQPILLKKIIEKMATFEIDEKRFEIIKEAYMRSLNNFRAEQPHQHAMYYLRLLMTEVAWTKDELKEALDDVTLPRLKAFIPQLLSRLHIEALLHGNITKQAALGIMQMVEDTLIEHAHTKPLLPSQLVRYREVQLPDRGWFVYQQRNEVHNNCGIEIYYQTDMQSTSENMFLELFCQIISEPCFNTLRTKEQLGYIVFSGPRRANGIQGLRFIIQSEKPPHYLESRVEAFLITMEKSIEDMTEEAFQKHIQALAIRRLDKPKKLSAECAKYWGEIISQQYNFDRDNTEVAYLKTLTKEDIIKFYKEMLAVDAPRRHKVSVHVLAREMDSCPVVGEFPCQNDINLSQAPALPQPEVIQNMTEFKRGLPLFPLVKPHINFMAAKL

[2] = target: T2, recombinant human IDE42-1019 (Homo sapiens, UniProt P14735); assay: Protease assay with fluorogenic peptide substrate Mca-[…](Dnp)-OH; assay type: biochemical; details: fluorogenic peptide Mca-RPPGFSAFK(Dnp)-OH; apparent IC50 for compounds with submaximal inhibition; read-out: IC50 (μM) Proteolysis
T2 construct: recombinant human IDE42-1019 (R&D Systems); purchased R&D Systems
T2 sequence (P14735 42-1019): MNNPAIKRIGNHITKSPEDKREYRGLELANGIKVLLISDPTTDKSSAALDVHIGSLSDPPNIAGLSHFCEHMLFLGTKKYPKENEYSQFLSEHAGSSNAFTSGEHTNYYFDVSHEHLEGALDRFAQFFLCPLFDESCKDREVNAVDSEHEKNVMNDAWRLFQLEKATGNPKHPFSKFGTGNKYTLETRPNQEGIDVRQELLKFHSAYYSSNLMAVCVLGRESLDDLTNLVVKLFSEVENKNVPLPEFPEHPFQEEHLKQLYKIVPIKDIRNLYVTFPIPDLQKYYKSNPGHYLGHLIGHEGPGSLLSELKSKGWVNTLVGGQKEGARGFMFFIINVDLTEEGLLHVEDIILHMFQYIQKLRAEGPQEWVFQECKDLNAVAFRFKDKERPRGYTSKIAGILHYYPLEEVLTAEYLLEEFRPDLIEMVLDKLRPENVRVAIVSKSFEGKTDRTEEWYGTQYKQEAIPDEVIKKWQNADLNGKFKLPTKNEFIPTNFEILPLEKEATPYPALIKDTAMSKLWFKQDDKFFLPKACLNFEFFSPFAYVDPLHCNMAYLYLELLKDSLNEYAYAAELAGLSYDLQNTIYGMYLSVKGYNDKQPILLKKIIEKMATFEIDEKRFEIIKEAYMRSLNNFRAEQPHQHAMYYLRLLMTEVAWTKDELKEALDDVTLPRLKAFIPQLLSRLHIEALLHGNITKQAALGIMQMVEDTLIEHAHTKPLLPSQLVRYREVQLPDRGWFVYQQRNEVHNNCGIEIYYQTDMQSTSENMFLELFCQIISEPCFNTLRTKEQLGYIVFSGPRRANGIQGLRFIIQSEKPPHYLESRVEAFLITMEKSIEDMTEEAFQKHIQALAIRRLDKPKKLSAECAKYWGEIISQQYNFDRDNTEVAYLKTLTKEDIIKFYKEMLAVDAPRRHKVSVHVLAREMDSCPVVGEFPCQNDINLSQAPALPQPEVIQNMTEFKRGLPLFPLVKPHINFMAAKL

Row | SMILES | main glucagon cleavage site [1] | IC50 [2]
1 | Cc1cccc(-c2ccc([C@H]3C4CN(S(=O)(=O)c5ccccc5C(F)(F)F)CCCCN4[C@@H]3CF)cc2)c1C (stereo partly drawn) [JP-18] | no change in the main glucagon cleavage site | 
2 | Cc1cccc(-c2ccc([C@@H]3[C@@H](CO)N4CCCCN(S(=O)(=O)c5ccccc5C(F)(F)F)C[C@@H]34)cc2)c1C [JP-17] | no change in the main glucagon cleavage site | 0.001 µM
